In US8067451B2, “Methods and medicaments for administration of ibuprofen” (Horizon Pharma USA, Inc., priority 2006, dated 2011):
Where two headings read alike, the source gives them in different places. Values belong to the compound of their own block, whether it stands above or below them.

Columns and labels:
[1] = system: gastric pH; settings: for Amount by which TID dosing exceeded BID dosing, Gastric pH (24 h), mean of group / Amount by which TID dosing exceeded BID dosing, Upright Gastric pH, mean of group / Mean reduction in time with gastric pH below 3.5, TID compared to BID / Mean reduction in time with gastric pH below 4.0, TID compared to BID: 26.6 mg TID vs 40 mg BID; for Median pH (Upright), by subject / Fraction time pH < 4, by subject / Time pH < 4, by subject: individual subjects; for Fraction time pH < 4, by subject / Time pH < 4, by subject: 24 h; for Patients with 24-hour median gastric pH below 2.5: 13 subjects
Experimental: Thirteen healthy subjects participated in the study.
There was a washout of at least one week between administration of the last dose of Treatment Period 1 and administration of the first dose of Treatment Period 2.
All doses of study medication were administered orally, on an open-label basis. Subjects were prohibited from taking any medications or interventions that decrease gastric acid secretion or neutralize gastric acid, and any medications that are known or suspected to cause dyspepsia or gastrointestinal ulcers, throughout the study period.
(The first day of dosing for each treatment period is designated Study Day 1, and the last day of dosing is designated Study Day […]). Subjects were followed for 14 days after administration of their last dose of study medication.
(§1) For each patient the median pH during a 24 hour period (or subperiod thereof) was calculated. To measure the effect of treatments for a group of individuals, the average or mean of the measured medians for several individuals was determined (i.e., average={[M1+M2 . . . Mx]/X} where “x” is the number of individuals in the group and each “M” is the median for an individual in the group).

[2] = Pharmacokinetic drug-drug interaction study of ibuprofen and famotidine in healthy male subjects; settings: for Bioequivalence when administered in combination compared to separate administration: 800 mg ibuprofen and 40 mg famotidine; for Difference of log-transformed AUC(last), alone versus in combination / Difference of log-transformed Cmax, alone versus in combination: bioequivalence test
[3] = Source text: where V/F is the apparent volume of distribution, ka is the absorption rate constant, kel is the elimination rate constant and Tlag is the absorption lag time.
[4] = for Famotidine (% control): glass vials
Source text: Forced degradation conditions refer to conditions of elevated temperature, or elevated temperature and humidity, intended to accelerate the process of chemical degradation. Forced degradation conditions for a period of time are used to predict the effect of storage under more benign conditions (e.g., room temperature) for a longer period of time.
After grinding, API mixture was stored in glass vials under the conditions indicated.

[5] = remark: listed apart in the source
Experimental: as §1
Samples were collected prior to initiation of dosing, and prior to administration of the second dose of study medication on Study Day 1 and Study Day 5 during both treatment periods.

[6] = clinical; settings: male, human, plasma
[7] = system: intragastric pH
Source text: The estimated pharmacodynamic parameters are listed below: Using the pharmacokinetic parameters obtained above together with the pharmacodynamic parameters above, plasma concentrations as well as intragastric pH as a function of time were simulated for various dose regimens.

[8] = 26.6 mg TID, 24 h of Study Day 1, all subjects n=13
[9] = 26.6 mg TID, Study Day 1, all subjects
[10] = 26.6 mg TID, Study Day 1, all subjects n=13
[11] = 26.6 mg TID, Study Day 1, normal weight subjects
[12] = 26.6 mg TID, Study Day 1, normal weight subjects n=9
[13] = 40 mg BID, 24 h of Study Day 1, all subjects n=13
[14] = 40 mg BID, Study Day 1, all subjects
[15] = 40 mg BID, Study Day 1, all subjects n=13
[16] = 40 mg BID, Study Day 1, normal weight subjects
[17] = 40 mg BID, Study Day 1, normal weight subjects n=9
[18] = fit to mean plasma data of 40 mg Pepcid single dose study

Bioequivalence when administered in combination compared to separate administration [2]: bioequivalent
Kel (mean ± SD) ([2]; administered alone, single oral dose, 800 mg ibuprofen or 40 mg famotidine): 0.19 ± 0.01
Difference of log-transformed AUC(last), alone versus in combination [2]: −0.034
Difference of log-transformed Cmax, alone versus in combination [2]: −0.08
V/F (apparent volume of distribution) ([3]; fit to mean plasma data of 40 mg Pepcid single dose bioequivalence study (n=30)): 241.8 L
Tlag (absorption lag time) [3, 18]: 0.3677 h
ka (absorption rate constant) [3, 18]: 0.8133 h⁻¹
kel (elimination rate constant) [3, 18]: 0.2643 h⁻¹
Famotidine (% control) ([4]; 1 wk 40° C.): 96.1 % control
Famotidine (% control) ([4]; 1 wk 60° C.): 121.0 % control
Famotidine Content (percent of target content) ([4]; 2 weeks at 60° C.): 98%
Famotidine (% control) ([4]; 2 wks 60° C.): 100.1 % control
Plasma accumulation with TID dosing ([5]; 26.6 mg TID vs 40 mg BID, day 5 trough): does not lead to plasma accumulation
Trough plasma concentration of famotidine (mean) ([5]; 26.6 mg TID, Day 1, prior to second dose): 9.7 ng/mL
Trough plasma concentration of famotidine (mean) ([5]; 26.6 mg TID, Day 5, prior to second dose): 15.7 ng/mL
Trough plasma concentration of famotidine (mean) ([5]; 40 mg BID, Day 1, prior to second dose): 10.5 ng/mL
Trough plasma concentration of famotidine (mean) ([5]; 40 mg BID, Day 5, prior to second dose): 15.7 ng/mL
Tmax ([6]; oral): 2.17 ± 0.93 h
half-life ([6]; oral): 3.49 ± 0.35 h
Tmax ([6]; po): 1.67 ± 0.52 h
half-life ([6]; po): 3.66 ± 0.19 h
EC50 (Pepcid concentration at one-half of Emax) ([7]; sigmoid Emax fit, plasma concentration vs intragastric pH, one patient): 0.0326 mg/L
Compound: NC(N)=Nc1nc(CSCCC(N)=NS(N)(=O)=O)cs1 [famotidine, 3-[2-(diaminomethyleneamino)thiazol-4-ylmethylthio]-N-sulfamoyl propionamidine]
Amount by which TID dosing exceeded BID dosing, Gastric pH (24 h), mean of group ([1]; all subjects): 0.3 pH Units
Amount by which TID dosing exceeded BID dosing, Upright Gastric pH, mean of group ([1]; all subjects): 0.5 pH Units
Mean reduction in time with gastric pH below 3.5, TID compared to BID ([1]; all subjects): 19.5 min
Mean reduction in time with gastric pH below 4.0, TID compared to BID ([1]; all subjects): 23.1 min
Amount by which TID dosing exceeded BID dosing, Gastric pH (24 h), mean of group ([1]; normal weight group): 0.5 pH Units
Amount by which TID dosing exceeded BID dosing, Upright Gastric pH, mean of group ([1]; normal weight group): 0.8 pH Units
Mean reduction in time with gastric pH below 3.5, TID compared to BID ([1]; normal weight group): 89.3 min
Mean reduction in time with gastric pH below 4.0, TID compared to BID ([1]; normal weight group): 89.9 min
Average time below pH 3.5 [1, 8]: 693.5 min
Average time below pH 4.0 [1, 8]: 783.4 Minutes
Average Absolute Deviation of 24 hour median gastric pH [1, 9]: 0.5
Average Absolute Deviation of pH in upright position [1, 9]: 0.7
Average Absolute Deviation of time below pH 3.5 [1, 9]: 124.7 min
Average Absolute Deviation of time below pH 4.0 [1, 9]: 111.9 min
Max-Min of pH values in the upright position [1, 9]: 2.4 pH units
Max-Min of time below pH 3.5 [1, 9]: 436 min
Max-Min of time below pH 4.0 [1, 9]: 459 min
Standard Deviation of 24 hour median gastric pH [1, 9]: 0.7
Max-Min of 24 hour median gastric pH [1, 10]: 1.9 pH units
Mean of 24 hour median gastric pH [1, 10]: 3.6 pH units
Mean of pH values taken in the upright position [1, 10]: 3.7
Range of 24 hour median gastric pH [1, 10]: 2.5-4.4
Range of pH values taken in the upright position [1, 10]: 2.3-4.7
Range of time below pH 3.5 [1, 10]: 514-950 min
Range of time below pH 4.0 [1, 10]: 589-1048 Minutes
Average Absolute Deviation of 24 hour median gastric pH [1, 11]: 0.5
Average Absolute Deviation of time below pH 3.5 [1, 11]: 116.7 min
Average Absolute Deviation of time below pH 4.0 [1, 11]: 105.4 min
Average Absolute Deviation of upright pH values [1, 11]: 0.9
Average time below pH 3.5 [1, 11]: 662.7 min
Average time below pH 4.0 [1, 11]: 764.2 Minutes
Max-Min of 24 hour median gastric pH [1, 11]: 1.9 pH units
Max-Min of time below pH 3.5 [1, 11]: 436 min
Max-Min of time below pH 4.0 [1, 11]: 459 min
Max-Min of upright pH values [1, 11]: 2.4 pH units
Mean of upright pH values [1, 11]: 3.8
Range of time below pH 3.5 [1, 11]: 514-950 min
Range of time below pH 4.0 [1, 11]: 589-1048 Minutes
Range of upright pH values [1, 11]: 2.3-4.7
Standard Deviation of 24 hour median gastric pH [1, 11]: 0.7
Mean of 24 hour median gastric pH [1, 12]: 3.6
Range of 24 hour median gastric pH [1, 12]: 2.5-4.4
Average time below pH 3.5 [1, 13]: 713.0 min
Average time below pH 4.0 [1, 13]: 806.5 Minutes
Average Absolute Deviation of 24 hour median gastric pH [1, 14]: 0.9
Average Absolute Deviation of pH in upright position [1, 14]: 1.0
Average Absolute Deviation of time below pH 3.5 [1, 14]: 169.1 min
Average Absolute Deviation of time below pH 4.0 [1, 14]: 158.8 min
Max-Min of pH values in the upright position [1, 14]: 3.3 pH units
Max-Min of time below pH 3.5 [1, 14]: 706 min
Max-Min of time below pH 4.0 [1, 14]: 710 min
Standard Deviation of 24 hour median gastric pH [1, 14]: 1.1
Max-Min of 24 hour median gastric pH [1, 15]: 3.3 pH units
Mean of 24 hour median gastric pH [1, 15]: 3.3 pH units
Mean of pH values taken in the upright position [1, 15]: 3.2
Range of 24 hour median gastric pH [1, 15]: 1.8-5.1
Range of pH values taken in the upright position [1, 15]: 1.8-5.1
Range of time below pH 3.5 [1, 15]: 459-1165 min
Range of time below pH 4.0 [1, 15]: 514-1224 Minutes
Average Absolute Deviation of 24 hour median gastric pH [1, 16]: 0.9
Average Absolute Deviation of time below pH 3.5 [1, 16]: 175.1 min
Average Absolute Deviation of time below pH 4.0 [1, 16]: 155.7 min
Average Absolute Deviation of upright pH values [1, 16]: 1.0
Average time below pH 3.5 [1, 16]: 752.0 min
Average time below pH 4.0 [1, 16]: 854.1 Minutes
Max-Min of 24 hour median gastric pH [1, 16]: 2.2 pH units
Max-Min of time below pH 3.5 [1, 16]: 679 min
Max-Min of time below pH 4.0 [1, 16]: 510 min
Max-Min of upright pH values [1, 16]: 2.8 pH units
Mean of upright pH values [1, 16]: 3.0
Range of time below pH 3.5 [1, 16]: 486-1165 min
Range of time below pH 4.0 [1, 16]: 714-1224 Minutes
Range of upright pH values [1, 16]: 1.8-4.6
Standard Deviation of 24 hour median gastric pH [1, 16]: 1.1
Mean of 24 hour median gastric pH [1, 17]: 3.1
Range of 24 hour median gastric pH [1, 17]: 1.8-4.0
Median pH (Upright), by subject ([1]; BID 40 mg): 1.8 pH Units
Fraction time pH < 4, by subject ([1]; BID 40 mg): (69.8%)
Time pH < 4, by subject ([1]; BID 40 mg): 1005 min
Patients with 24-hour median gastric pH below 2.5 ([1]; BID period (40 mg)): three
Difference in Median pH (Upright), TID period vs BID period ([1]; Subject 106): 2.2 pH Units
Difference in Median pH, TID period vs BID period ([1]; Subject 106): 2.1 pH Units
Difference in Time pH < 4, BID period vs TID period ([1]; Subject 106): 268 min
Median pH (Upright), by subject ([1]; TID 26.6 mg): 4.0 pH Units
Fraction time pH < 4, by subject ([1]; TID 26.6 mg): (51.2%)
Time pH < 4, by subject ([1]; TID 26.6 mg): 737 min
Patients with 24-hour median gastric pH below 2.5 ([1]; TID period (26.6 mg)): no patients
Emax (maximum intragastric pH) ([7]; sigmoid Emax fit of digitized plasma concentration vs intragastric pH, one patient (Echizen and Ishizaki)): 7.80
E0 (intragastric pH at time zero) ([7]; sigmoid Emax fit, one patient): 1.88
γ (shape factor) ([7]; sigmoid Emax fit, one patient): 4.80

Bioequivalence when administered in combination compared to separate administration [2]: bioequivalent
Difference of log-transformed AUC(last), alone versus in combination [2]: 0.02
Difference of log-transformed Cmax, alone versus in combination [2]: 0.02
Tmax ([6]; oral): 2.25 ± 1.89 h
Tmax ([6]; po): 1.58 ± 0.49 h
Compound: CC(C)Cc1ccc(C(C)C(=O)O)cc1 (stereo not drawn) [ibuprofen, 2-(p-isobutylphenyl) propionic acid]
